Source: patent publication US8119589B2, “Modulation of CD4+ T cell responses by a tick saliva protein, Salp15 and polypeptides derived therefrom” (University of North Carolina at Charlotte, priority 2004, dated 2012)

Experiments:
mouse CD4+ T lymphocytes = assay: TCR ligation-induced protein tyrosine phosphorylation in anti-CD3/CD28 stimulated CD4+ T cells (immunoblotting, confocal microscopy); format: cell-based
Method: Naïve CD4+ T cells from C3H/HeN, Balb/c, and B10.BR mice were purified as previously described (Anguita et al., 2002). CD4+ T cells were preincubated in Click's modified Bruff's Medium (Sigma Chemical Co., St. Louis, Mo., U.S.A.) for 10 minutes at 37° C. with and without Salp15 (50 μg/mL) and stimulated for 20 min or the indicated times at 37° C. with 10 μg/mL of anti-CD3ε, 1 μg/mL of anti-CD28, and 10 μg/mL of anti-armenian and syrian hamster IgG (BD Biosciences Pharmingen, San Jose, Calif., U.S.A.). Jurkat (E6-1) cells were stimulated using 5 μg/mL of OKT3 mAb (eBioscience, San Diego, Calif., U.S.A.) and 1 μg/mL of anti-human CD28 cross linked with 5 μg/mL anti-mouse IgG for the indicated times.
(§1) For the visualization of lipid rafts, phospho-tyrosine, and cytoskeleton reorganization, CD4^+, CD8^+ or Jurkat cells were cytospun for 10 minutes at 1000 RPM onto positively charged microslides (Fisher Scientific, Hampton, N.H., U.S.A.). The cells were fixed with 3.7% paraformaldehyde (Sigma Chemical Co.) for 15 minutes and stained with CTB594 (Molecular Probes, Eugene, Oreg., U.S.A.), AlexaFluor488 labeled phalloidin (Molecular Probes) or (1:50) biotin-conjugated anti-p-Tyr (PY99) followed by Streptavidin-AlexaFluor594 (1:100, Molecular Probes). For p-LAT and p-PLCγ1 staining, fixed cells were treated with PBS containing 0.1% Triton-X 100 and 100 mM glycine for 15 min at room temperature and stained using rabbit p-LAT (Tyr^191) or rabbit anti-p-PLCγ1 (Tyr^783) probed with anti-rabbit IgG488 (Molecular Probes).
(§2) For tyrosine phosphorylation western analysis, cells were lysed in 60 mM Tris (pH 7.4) containing 150 mM NaCl, 5 mM EDTA, 1 mM EGTA, 1 mM β-glycerol phosphate, 2.5 mM sodium pyrophosphate, 25 mM NaF, 2 mM sodium orthovanadate, 1% Triton-X 100, 0.25% sodium deoxycholate, 1 mM PMSF and protease inhibitors for 15 min on ice, sonicated 4×5 sec and incubated at 37° C. for 10 min. The lysate was cleared by centrifugation and boiled in SDS-sample buffer. The samples were subjected to SDS-PAGE, transferred to a nitrocellulose membrane and immunoblotted with anti-pTyr, anti-pPLCγ1 and anti-Vav1, anti-pSrc family (Tyr^416) to measure p-Lck^394 (Alonso et al., 2004), anti-Lck, anti-pZap70 (Tyr^319), anti-Zap70, p44/42 and p44/42 (phopho-Tyr^204/Thr^202). Vav1 was immunoprecipitated using anti-Vav1 and protein A-agarose beads overnight, subjected to SDS-PAGE followed by immunoblotting with anti-pTyr or anti-Vav1. To examine the effect of Salp15 on T cell stimulation with INFγ, CD4^+ T cells were preincubated with Salp15 at 50 μg/mL followed by activation with 20 ng/mL of mouse recombinant INFγ (R & D Systems, Minneapolis, Minn., U.S.A.) for 30 min at 37° C. The cells were lysed as above and subjected to SDS-PAGE and immunoblotting with anti-pSTAT1 and anti-STAT1.
Quantification of immunoblots was performed using the SCION IMAGE™ software package, Scion Corporation (Frederick, Md., U.S.A.).

Jurkat cells = assay: Actin polymerization (phalloidin488 staining, F-actin immunoblot) in activated Jurkat cells; format: cell-based, human; conditions: Salp15 pretreatment
Method: as §1
The amount of F-actin in activated CD4+ T cells in the presence and absence of Salp15 was quantified by ultracentrifugation and Western blotting. CD4^+ T cells were activated as described above for 2 min. Cells were lysed in HEPES buffer containing Triton X-100 (10 mM NaCl, 135 mM KCl, 2 mM MgCl2, 2 mM EGTA, 10 mM HEPES pH 7.15, 1% Triton X-100, 0.01 mg/ml aprotinin, 0.01 mg/ml leupeptin, 1 mM PMSF). […] Equal amounts of total protein were loaded on the SDS-gel based on the total actin determined from a sample of the cell lysate.

[1] = system: splenic T cells from CD4-deficient mice and control T cells; assay: IL-2 production by anti-CD3/CD28 stimulated T cells from CD4-deficient and B6 mice; format: cell-based, mouse; conditions: 50 μg/mL Salp15, 72 hrs
Method: T-cells from CD4-deficient and B6 mice (The Jackson Laboratory, Bar Harbor, Me., U.S.A.) were purified by negative selection and activated for 72 hrs using 5 μg/ml of plate bound anti-CD3 and 1 μg/ml of anti-CD28 in the presence or absence of 50 μg/mL of Salp15. DO11.10 transgenic mouse (The Jackson Laboratory) CD4^+ T cells were purified by negative selection as before and incubated in the presence of 106/mL of syngeneic mitomycin C-treated (50 μg/ml for 40 min at 37° C.) antigen presenting cells (APCs) with 10 μg/mL of ovalbumin in the presence of 0.5, 5.0 and 50 μg/mL of Salp15 for 72 hrs. The supernatants were then collected and IL-2 measured by capture ELISA following the manufacturer's instruction (BD Biosciences Pharmingen).

CD4+ T cells = assay: INFγ-mediated STAT1 phosphorylation in CD4+ T cells; format: cell-based, mouse; conditions: 20 ng/mL INFγ; Salp15 50 μg/mL
Method: as §2

HIV gp120 binding to CD4 = biological target: T1, HIV gp120 binding to CD4 (Homo sapiens, UniProt P01730); assay: gp120-HRP binding to plate-coated sCD4 (D1-D2); conditions: 0.05, 0.5 and 5 uM Salp15
T1 construct: coated with 0.05 uM sCD4 (D1-D2 domains)
Method: Ninety-six (96) well plates were coated with 0.05 uM sCD4 (D1-D2 domains) in coating buffer (pH 9.6). The plates were washed 2× and blocked with 200 uL of PBS+10% FCS. Samples were then added containing gp120-HRP plus 0, 0.05, 0.5 and 5 uM Salp15 in PBS+10% FCS. KLH was used as negative control at 5 uM. The plates were incubated for 2 hours at room temperature and washed 4×, followed by incubation with horseradish peroxidase substrate and stop solution from KPL.

[2] = Salp15 pretreatment, quantification of the specific bands

Salp15: secreted salivary protein from Ixodes scapularis, SEQ ID NO: 2; recombinant His-tagged, produced in Drosophila S2 cells
Reduction of PLCγ1 phosphorylation (Tyr783) (mouse CD4+ T lymphocytes; Salp15 pretreatment (50 μg/mL), anti-CD3/CD28 stimulated, compared to control treated cells): 46%
Reduction in tyrosine phosphorylation of Vav1 (mouse CD4+ T lymphocytes; Salp15 pretreatment, Vav1 immunoprecipitation, anti-pTyr immunoblot): ~58%
Phosphorylation level of Lat at Tyr191 (mouse CD4+ T lymphocytes; Salp15 pretreatment, immunofluorescence): reduced
Reduction in tyrosine phosphorylation of Lck (Tyr394) (mouse CD4+ T lymphocytes; [2]): about 56%
Reduction in tyrosine phosphorylation of Zap70 (Tyr319) (mouse CD4+ T lymphocytes; [2]): ~67%
ERK activation (ERK1/2 phosphorylation) (mouse CD4+ T lymphocytes; anti-CD3/CD28 stimulation): does not impair
Lck phosphorylation in the absence of T cell stimulation (mouse CD4+ T lymphocytes; no stimulation): did not induce
Phalloidin488 staining / amount of F-actin (Jurkat cells): reduced
Inhibition (immunosuppressive activity, IL-2) ([1]; T cells from CD4-negative mice): 33%
Inhibition (immunosuppressive activity, IL-2) ([1]; control T cells (B6 mice)): 85%
INFγ-mediated phosphorylation of STAT1 (CD4+ T cells): unaffected
Inhibition of gp120 binding to CD4 (HIV gp120 binding to CD4): concentration dependent inhibition
